10 compounds from US5994569A, “Dihomo-seco-cholestanes” (Hoffmann-La Roche Inc., priority 1997, dated 1999) can be followed below.

Each structure is given as a SMILES string.

As a reminder, the IC50 is the concentration needed to halve the response being measured.

One test relates to IL-12 production. In words: In vitro Assay for IL-12 Inhibition (IL-12 production by THP-1 cells or human peripheral whole blood, ELISA). The class given is cell-based. The conditions noted are these: Homo sapiens, THP-1, 48 h, read-out: IC50 values for the inhibition of IL-12 production.
On to `C=C1/C(=C\C=C2/CCC[C@]3(C)[C@@H]([C@H](C)CCCC(C)(C)O)CC[C@@H]23)C[C@@H](O)C[C@@H]1O` [Calcitriol, reference compound], for which the half-maximal inhibitory concentration (IC50) amounted to 0.06 µM.

The same test, now with this note: THP-1 cells stimulated with SAC and huIFN-γ (1000 U/ml), or alternatively human peripheral whole blood primed with huIFN-γ then SAC; supernatants after 48 hours; IL-12 by ELISA; read-out: IC50 values for the inhibition of IL-12 production.
On to `C=C1C(=CC=C2CCCC3(C)C2CCC3C(C)CC=CC=CC(C)(C)O)CC(O)CC1O` [Example 1, (5Z,7E ,23E,24aE)-(1R,3S)-24a,24b-dihomo-9,10-seco-cholesta-5,7,10(19),23,24a-pentaene-1,3,25-triol], for which the IC50 stood at 0.01 µM.

For `C=C1/C(=C\C=C2/CCC[C@]3(C)[C@@H]([C@H](C)C/C=C/C=C/C(C)(C)O)CC[C@@H]23)C[C@H](O)C[C@@H]1O` [Example 3, (5Z,7E,23E,24aE)-(1S,3S)-24a,24b-Dihomo-9,10-seco-cholesta-5,7,10(19),23,24a-pentaene-1,3,25-triol], the IC50 was determined as 0.03 µM.

Turning to `C=C1/C(=C\C=C2/CCC[C@]3(C)[C@@H]([C@H](C)C/C=C/C=C/C(C)(C)O)CCC[C@@H]23)C[C@@H](O)C[C@@H]1O` [Example 4, (5Z,7E,23E,24aE)-(1S,3R)-17a,24a,24b-trihomo-9,10-seco-cholesta-5,7,10(19),23,24a-pentaene-1,3,25-triol], the IC50 was 0.001 µM. Same read-out and setting: to `C=C1/C(=C\C=C2/CCC[C@]3(C)C([C@H](C)C/C=C/C=C/C(C)(C)O)=CCC[C@@H]23)C[C@@H](O)C[C@@H]1O` [Example 8, (5Z,7E,23E,24aE)-(1S,3R)-17a,24a,24b-Trihomo-9,10-seco-cholesta-5,7,10(19),17,23,24a-hexaene-1,3,25-triol] belongs 0.001 µM; to `C[C@H](CC=CC#CC(C)(C)O)[C@H]1CC[C@H]2/C(=C/C=C3C[C@@H](O)C[C@H](O)C3)CCC[C@]12C` [Example 13a, (7E,23E)- and (7E,23Z)-(1R,3R)-24a,24b-dihomo-19-nor-9,10-seco-cholesta-5,7,23-trien-24a-yne-1,3,25-triol], 0.01 µM. Still for that read-out and setting: to `C[C@H](CC=CC#CC1(O)CCCC1)[C@H]1CC[C@H]2/C(=C/C=C3C[C@@H](O)C[C@H](O)C3)CCC[C@]12C` [Example 13c, (7E,23E)- and (7E,23Z)-(1R,3R)-25-(1-hydroxy-cyclopentyl)-24a,24b-dihomo-19-nor-9,10-seco-cholesta-5,7,23-trien-24a-yne-1,3,25-diol] belongs 0.01 µM. Still for that read-out and setting: to `C[C@H](CC=CC#CC(O)(C(F)(F)F)C(F)(F)F)[C@H]1CC[C@H]2/C(=C/C=C3C[C@@H](O)C[C@H](O)C3)CCC[C@]12C` [Example 13d, (7E,23E)- and (7E,23Z)-(1R,3R)-26,26,26,27,27,27-hexafluoro-24a,24b-dihomo-19-nor-9,10-seco-cholesta-5,7,23-trien-24a-yne-1,3,25-triol] belongs 0.01 µM. On to `CCC(O)(/C=C/C=CC[C@@H](C)[C@H]1CC[C@H]2/C(=C/C=C3C[C@@H](O)C[C@H](O)C3)CCC[C@]12C)CC` [Example 13e, (7E,23E24aE)- and (7E,23Z,24aE)-(1R,3R)-24a,24b,26a,26b-tetrahomo-19-nor-9,10-seco-cholesta-5,7,23,24a-tetraen-24a-yne-1,3,25-triol], for which the IC50 turned out to be 0.001 µM. Same read-out and setting: the same measure for `C[C@H](CC=C/C=C/C1(O)CCCC1)[C@H]1CC[C@H]2/C(=C/C=C3C[C@@H](O)C[C@H](O)C3)CCC[C@]12C` [Example 13f, (7E,23E,24aE)- and (7E,23Z,24aE)-(1R,3R)-25-(1-hydroxy-cyclopentyl)-24a,24b-dihomo-19-nor-9,10-seco-cholesta-5,7,23,24a-tetraen-24a-yne-1,3,25-diol]: 0.01 µM.
